For five compounds, IC50 results are on record in patent publication US20260022142A1, “MACROCYCLIC IMMUNOMODULATORS” (Bristol-Myers Squibb Company, priority 2022, published 2026).

Molecules are shown by their SMILES. Bridge positions count the residues as written; N and C are the ends. Square brackets hold non-standard residues; d marks the D form. Peptide text beside a SMILES is read from it. * marks the point of attachment. ξ: configuration not given here. Bip = N[C@@H](Cc1ccc(-c2ccccc2)cc1)C(=O)O; Phe(3-Me) = Cc1cccc(C[C@H](N)C(=O)O)c1; Val(3-OH) = CC(C)(O)[C@H](N)C(=O)O; Cha = N[C@@H](CC1CCCCC1)C(=O)O; Thr(3ξ) = CC(O)[C@H](N)C(=O)O; 12Ado = NCCCCCCCCCCCC(=O)O; Carboxymethyl = O=C(O)C*; Orn = NCCC[C@H](N)C(=O)O; Dab = NCC[C@H](N)C(=O)O

The target in the test is T1, PD-1/PD-L1 interaction (PE-labeled human PD-L1-Ig binding to Jurkat cell line over-expressing human PD-1) (Homo sapiens, UniProt Q15116).
T1 construct: expressed in transfected cells; host or cells: Jurkat
T1 sequence (Q15116 25-288): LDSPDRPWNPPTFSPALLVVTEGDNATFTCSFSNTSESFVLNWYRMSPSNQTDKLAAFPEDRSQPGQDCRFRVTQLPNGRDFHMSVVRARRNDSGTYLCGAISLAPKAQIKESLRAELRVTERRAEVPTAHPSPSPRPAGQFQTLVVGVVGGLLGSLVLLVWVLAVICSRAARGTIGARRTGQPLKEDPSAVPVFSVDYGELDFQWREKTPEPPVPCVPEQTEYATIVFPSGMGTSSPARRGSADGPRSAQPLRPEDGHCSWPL
The test can be described thus: Jurkat-PD-1 Cell Binding High-Content Screening Assay (CBA). The format is cell-based. Particulars: Jurkat cell line over-expressing human PD-1; PE-labeled PD-L1-Ig 20 nM final; read-out: Jurkat hPD1-PDL1 IC50. In short, it runs like this: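 First, compound is added to PD-1-expressing Jurkat cells in serum-containing DMEM and left 2 h at 37° C. Next, PE-conjugated PD-L1-Ig is introduced at 20 nM final concentration for 1 hour. Finally, cells are fixed in 4% paraformaldehyde with Hoechst 33342, washed and imaged.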
Usually IC50 stands for the concentration that inhibits the measured activity by half. As to `CC(=O)NCCCC[C@@H]1NC(=O)[C@H](Cc2ccc(-c3ccccc3)cc2)NC(=O)[C@H](Cc2ccc(O)cc2)NC(=O)[C@H](Cc2cccc(C)c2)NC(=O)[C@H](CC(=O)O)NC(=O)[C@H](Cc2ccc(OCC(=O)O)cc2)NC(=O)[C@H](CCN)NC(=O)CSC[C@@H](C(=O)N[C@@H](CCN)C(=O)N[C@@H](CO)C(=O)NCCCCCCCCCCCC(=O)O)NC(=O)[C@H](CCC(=O)O)NC(=O)[C@H](C(C)(C)O)NC(=O)[C@H](CC2CCCCC2)NC(=O)[C@H](CCN)NC(=O)[C@@H](CC(C)C)NC(=O)[C@H](CCCN)NC1=O` [Compound 3621] ({CH2CO}-[Dab]Y(Carboxymethyl)D[Phe(3-Me)]Y[Bip]K(Ac)[Orn][dL][Dab][Cha][Val(3-OH)]EC[Dab]S[12Ado]-OH; thioether N-14), the half-maximal inhibitory concentration (IC50) was found to be 0.0243 µM.

`CC(=O)NCCCC[C@@H]1NC(=O)[C@H](Cc2ccc(-c3ccccc3)cc2)NC(=O)[C@H](Cc2ccc(O)cc2)NC(=O)[C@H](Cc2cccc(C)c2)NC(=O)[C@H](CC(=O)O)NC(=O)[C@H](Cc2ccc(OCC(=O)O)cc2)NC(=O)[C@H](C(C)O)NC(=O)CSC[C@@H](C(=O)N[C@@H](CCN)C(=O)N[C@@H](CO)C(=O)NCCCCCCCCCCCC(=O)O)NC(=O)[C@H](CCCN)NC(=O)[C@H](C(C)(C)O)NC(=O)[C@H](CC2CCCCC2)NC(=O)[C@H](CCN)NC(=O)[C@@H](CC(C)C)NC(=O)[C@H](CCCN)NC1=O` (stereo partly drawn) [Compound 3622] ({CH2CO}-[Thr(3ξ)]Y(Carboxymethyl)D[Phe(3-Me)]Y[Bip]K(Ac)[Orn][dL][Dab][Cha][Val(3-OH)][Orn]C[Dab]S[12Ado]-OH; thioether N-14): the half-maximal inhibitory concentration (IC50) was 0.0183 µM. Next, `CC(=O)NCCCC[C@@H]1NC(=O)[C@H](Cc2ccc(-c3ccccc3)cc2)NC(=O)[C@H](Cc2ccc(O)cc2)NC(=O)[C@H](Cc2cccc(C)c2)NC(=O)[C@H](CC(=O)O)NC(=O)[C@H](Cc2ccc(OCC(=O)O)cc2)NC(=O)[C@H](CCN)NC(=O)CSC[C@@H](C(=O)N[C@@H](CCN)C(=O)N[C@@H](CO)C(=O)NCCCCCCCCCCCC(=O)O)NC(=O)[C@H](CCCN)NC(=O)[C@H](C(C)O)NC(=O)[C@H](CC2CCCCC2)NC(=O)[C@H](CCN)NC(=O)[C@@H](CC(C)C)NC(=O)[C@H](CCCN)NC1=O` (stereo partly drawn) [Compound 3623] ({CH2CO}-[Dab]Y(Carboxymethyl)D[Phe(3-Me)]Y[Bip]K(Ac)[Orn][dL][Dab][Cha][Thr(3ξ)][Orn]C[Dab]S[12Ado]-OH; thioether N-14): 0.0623 µM. Consider `Cc1cccc(C[C@@H]2NC(=O)[C@H](CC(=O)O)NC(=O)[C@H](Cc3ccc(OCC(=O)O)cc3)NC(=O)[C@H](CCN)NC(=O)CSC[C@@H](C(=O)N[C@@H](CCN)C(=O)N[C@@H](CO)C(=O)NCCCCCCCCCCCC(=O)O)NC(=O)[C@H](CCCN)NC(=O)[C@H](C(C)(C)O)NC(=O)[C@H](CC3CCCCC3)NC(=O)[C@H](CCN)NC(=O)[C@@H](CC(C)C)NC(=O)[C@H](CCCN)NC(=O)[C@H](Cc3ccc(OCC(=O)O)cc3)NC(=O)[C@H](Cc3ccc(-c4ccccc4)cc3)NC(=O)[C@H](Cc3ccc(OCC(=O)O)cc3)NC2=O)c1` [Compound 3624] ({CH2CO}-[Dab]Y(Carboxymethyl)D[Phe(3-Me)]Y(Carboxymethyl)[Bip]Y(Carboxymethyl)[Orn][dL][Dab][Cha][Val(3-OH)][Orn]C[Dab]S[12Ado]-OH; thioether N-14), for which the IC50 was found to be 0.0215 µM. Under `Cc1cccc(C[C@@H]2NC(=O)[C@H](CC(=O)O)NC(=O)[C@H](Cc3ccc(OCC(=O)O)cc3)NC(=O)[C@H](CCN)NC(=O)CSC[C@@H](C(=O)N[C@@H](CCN)C(=O)N[C@@H](CO)C(=O)NCCCCCCCCCCCC(=O)O)NC(=O)[C@H](CO)NC(=O)[C@H](C(C)(C)O)NC(=O)[C@H](CC3CCCCC3)NC(=O)[C@H](CCN)NC(=O)[C@@H](CC(C)C)NC(=O)[C@H](CCCN)NC(=O)[C@H](Cc3ccc(OCC(=O)O)cc3)NC(=O)[C@H](Cc3ccc(-c4ccccc4)cc3)NC(=O)[C@H](Cc3ccc(OCC(=O)O)cc3)NC2=O)c1` [Compound 3625] ({CH2CO}-[Dab]Y(Carboxymethyl)D[Phe(3-Me)]Y(Carboxymethyl)[Bip]Y(Carboxymethyl)[Orn][dL][Dab][Cha][Val(3-OH)]SC[Dab]S[12Ado]-OH; thioether N-14) stands 0.0233 µM.
